Consider one compound from patent US10072014B2 (Janssen Pharmaceutica NV, priority 2014, dated 2018).

Data set [1] has as its target T1, human mGlu2 receptor (Homo sapiens, UniProt Q14416).
T1 construct: expressed in transfected cells; host or cells: CHO cells
Put plainly: [35S]GTPγS binding assay, negative allosteric modulation of mGluR2. The data set is classed as biochemical. From the text:
The compounds provided in the present invention are negative allosteric modulators of mGluR2. These compounds appear to inhibit glutamate responses by binding to an allosteric site other than the glutamate binding site. The response of mGluR2 to a concentration of glutamate is decreased when compounds of Formula (I) are present. Compounds of Formula (I) are expected to have their effect substantially at mGluR2 by virtue of their ability to reduce the function of the receptor. The effects of negative allosteric modulators tested at mGluR2 using the [^35S]GTPγS binding assay method described below and which is suitable for the identification of such compounds, and more particularly the compounds according to Formula (I), are shown in Table 7.
1) [^35S]GTPγS Binding Assay
The [^35S]GTPγS binding assay is a functional membrane-based assay used to study G-protein coupled receptor (GPCR) function whereby incorporation of a non-hydrolysable form of GTP, [^35S]GTPγS (guanosine 5′-triphosphate, labelled with […] ^35S), is measured. The G-protein a subunit catalyzes the exchange of guanosine 5′-diphosphate (GDP) by guanosine triphosphate (GTP) and on activation of the GPCR by an agonist, [^35S]GTPγS, becomes incorporated and cannot be cleaved to continue the exchange cycle (Harper (1998) Current Protocols in Pharmacology 2.6.1-10, John Wiley & Sons, Inc.). […] Here we describe the use of the [^35S]GTPγS binding assay using membranes from cells transfected with the human mGlu2 receptor and adapted from Schaffhauser et al. (Molecular Pharmacology, 2003, […]) for the detection of the negative allosteric modulation (NAM) properties of the compounds of this invention.
CHO-cells were cultured to pre-confluence and stimulated with 5 mM butyrate for 24 h. Cells were then collected by scraping in PBS and cell suspension was centrifuged (10 min at 4000 RPM in benchtop centrifuge). Supernatant was discarded and pellet gently resuspended in 50 mM Tris-HCl, pH 7.4 by mixing with an Ultra Turrax homogenizer. The suspension was centrifuged at 12,400 RPM (Sorvall F14S-6x250Y) for 10 minutes and the supernatant discarded. The pellet was homogenized in 5 mM Tris-HCl, pH 7.4 using an Ultra Turrax homogenizer and centrifuged again (13,000 RPM, 20 min, 4° C.). The final pellet was resuspended in 50 mM Tris-HCl, pH 7.4 and stored at −80° C. in appropriate aliquots before use. Protein concentration was determined by the Bradford method (Bio-Rad, USA) with bovine serum albumin as standard.
[^35S]GTPγS Binding Assay
Measurement of mGluR2 negative allosteric modulatory activity of test compounds was performed as follows. Test compounds and glutamate were diluted in assay buffer containing 10 mM HEPES acid, 10 mM HEPES salt, pH 7.4, 100 mM NaCl, 3 mM MgCl2 and 10 μM GDP. Human mGlu2 receptor-containing membranes were thawed on ice and diluted in assay buffer supplemented with 18 μg/ml saponin. Membranes were pre-incubated with compound together with a predefined (˜EC80) concentration of glutamate (60 μM) for 30 min at 30° C. After addition of [^35S]GTPγS (f.c. 0.1 nM), assay mixtures were shaken briefly and further incubated to allow [^35S]GTPγS incorporation on activation (30 minutes, 30° C.). Final assay mixtures contained 7 μg of membrane protein in 10 mM HEPES acid, 10 mM HEPES salt, pH 7.4, 100 mM NaCl, 3 mM MgCl2, 10 μM GDP and 10 μg/ml saponin. Total reaction volume was 200 μl. Reactions were terminated by rapid filtration through Unifilter-96 GF/B plates (Perkin Elmer, Massachusetts, USA) using a 96-well filtermate universal harvester. Filters were washed 6 times with ice-cold 10 mM NaH2PO4/10 mM Na2HPO4, pH 7.4. Filters were then air-dried, and 30 μl of liquid scintillation cocktail (Microscint-O) was added to each well. Membrane-bound radioactivity was counted in a Topcount.
The concentration-response curves of representative compounds of the present invention were generated using the Lexis software interface (developed at J&J). […]
For orientation: GTPγS is a poorly hydrolysed GTP analogue; its binding reports G protein activation.

Data set [2] deals with rats. Put plainly: Reversal of the effect of the mGluR2 PAM JNJ-42153605-induced inhibition of scopolamine-induced hyperlocomotion. It is filed as in vivo. To be noted: Rattus norvegicus, PO. On the procedure: 2) Reversal of the Effect of the mGluR2 PAM JNJ-42153605-induced Inhibition of Scopolamine-induced Hyperlocomotion Apparatus
Motor activity was measured in microprocessor-based motor activity arenas (closed gray PVC cylinders with a height of 39 cm and a diameter of 31 cm). Each arena was placed on an infrared LED (8×8 LEDs) lit box (white PVC squared box; 40×40 cm^2; height 12.5 cm. An infrared-sensitive tube camera and a white light source were mounted to the ceiling above the observation chamber to track the animal. The total distance traveled (cm) was recorded and analyzed using the Noldus Ethovision XT Video Tracking System (Version 7.0.418; Noldus, Wageningen, The Netherlands). The intensity of the light within the activity cages (measured in the centre at the level of the floor) ranged between 4 and 8 LUX.
The rats were pretreated with test compound or vehicle at 60 min before the start of the activity recordings and placed into individual cages. The rats were challenged with JNJ-42153605 (3-(cyclopropylmethyl)-7-(4-phenylpiperidin-1-yl)-8-(trifluoromethyl)-[1,2,4]triazolo[4,3-a]pyridine; WO2010/130424; Cid et al. J. Med. Chem. 2012, 55, 8770-8789) (20 mg/kg, i.v.) 30 min before the start of the activity recording combined with scopolamine (0.16 mg/kg, i.v.) just before the start of the activity measurements. Immediately after the injection of scopolamine, the rats were placed into the activity monitors and total distance traveled over the first 30 min was measured.
Solvent-pretreated Control Rats.
Animals receiving the combination of JNJ-42153605 and scopolamine (n=433) almost always traveled a distance of less than 1500 cm (<1500 cm) (only 2.5% of the control rats traveled a distance of more than 1500 cm (>1500 cm)). On the other hand, animals challenged with scopolamine alone (n=215) always traveled a total distance of more than 1500 cm (>1500 cm) and almost always (in 95.8% of the rats) a distance of more than 4400 cm (>4400 cm). […] For reversal of the inhibitory effect of JNJ-42153605 on the scopolamine-induced hyperlocomotion, the following all-or-none criteria were adopted: (1) reversal: total distance>1500 cm.

Where two headings read alike, the source gives them in different places.

As usually defined, the Emax is the greatest response seen or fitted, relative to the assay's reference. As usually defined, the melting point is the temperature, or range, at which the solid turns liquid. The term ED50 denotes the dose that gives a 50% effect, or the effect in half of the subjects.

T1 sequence (Q14416 19-872): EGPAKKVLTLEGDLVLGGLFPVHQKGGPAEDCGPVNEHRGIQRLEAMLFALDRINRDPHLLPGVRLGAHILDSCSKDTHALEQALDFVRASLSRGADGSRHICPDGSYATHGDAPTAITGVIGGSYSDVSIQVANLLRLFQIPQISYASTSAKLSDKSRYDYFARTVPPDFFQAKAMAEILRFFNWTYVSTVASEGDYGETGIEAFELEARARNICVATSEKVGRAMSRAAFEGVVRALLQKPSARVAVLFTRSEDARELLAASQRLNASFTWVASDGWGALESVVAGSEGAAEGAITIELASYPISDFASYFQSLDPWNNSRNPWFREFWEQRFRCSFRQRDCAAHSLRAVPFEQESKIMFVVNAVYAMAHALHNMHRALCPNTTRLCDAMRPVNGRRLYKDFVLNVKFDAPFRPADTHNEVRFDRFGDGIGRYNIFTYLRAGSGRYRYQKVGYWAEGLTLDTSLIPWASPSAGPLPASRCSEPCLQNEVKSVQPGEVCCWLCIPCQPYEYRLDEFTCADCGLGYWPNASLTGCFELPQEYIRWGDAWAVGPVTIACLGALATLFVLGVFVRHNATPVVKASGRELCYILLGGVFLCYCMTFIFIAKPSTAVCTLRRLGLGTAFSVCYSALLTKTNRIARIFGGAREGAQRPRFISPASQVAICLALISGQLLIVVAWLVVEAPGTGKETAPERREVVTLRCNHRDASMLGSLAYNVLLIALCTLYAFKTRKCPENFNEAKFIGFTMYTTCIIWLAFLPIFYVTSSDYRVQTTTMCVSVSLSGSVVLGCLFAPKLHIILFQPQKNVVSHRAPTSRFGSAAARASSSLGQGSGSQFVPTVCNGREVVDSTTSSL

As for `Cc1ncc(-c2cnn3c2C(=O)N(c2ccc(C(F)(F)F)c(Cl)c2)C[C@@H]3C)[nH]1` [Compound 27], the melting point worked out at 188.27 °C. Also, in data set [1] (maximal % inhibition relative to the control glutamate response (EC80 glutamate), read-out: GTPγS-hmGluR2 anGT Emax), the Emax came to 106%. For the same compound, the IC50 in data set [1] (membranes from CHO cells transfected with human mGlu2 receptor, glutamate 60 μM (~EC80), read-out: GTPγS-hmGluR2 anGT pIC50 (converted)) is 3.47 nM. In addition, the median effective dose (ED50) in data set [2] (criterion for reversal: total distance >1500 cm, read-out: ED50 SCOP JNJ-42153605) was greater than 2.5 mg/kg. In addition, in data set [2] (more sensitive criterion for reversal: total distance >1300 cm, read-out: ED50 SCOP JNJ-42153605, more sensitive criterion), the 50% effective dose (ED50) is 1.25 mg/kg.
